Test results from patent US20230265151A1, “GIP/GLP1 CO-AGONIST COMPOUNDS” (priority 2020, published 2023).
Where two headings read alike, the source gives them in different places. *1 amine or outer side, *2 acyl side, *3 side chain or, on linkers, in order; H or OH if unused. Where a SMILES comes first, the peptide text is derived from it. Side-chain parts run from the residue outwards. [ ]: non-standard residue; d: D form. The star is where a group is joined. αMePhe(2-F) = C[C@](N)(Cc1ccccc1F)C(=O)O; γGlu = O=C(O)[C@H](CCC(=O)[*:2])N[*:1]; αMeY = C[C@](N)(Cc1ccc(O)cc1)C(=O)O; αMeL = CC(C)C[C@](C)(N)C(=O)O; Lauroyl = CCCCCCCCCCCC(=O)*; Orn = NCCC[C@H](N)C(=O)O; AEEA = NCCOCCOCC(=O)O; Aib = CC(C)(N)C(=O)O

Legend:
Assay type in all cases: cell-based
hGCGR = biological target: T1, hGCGR (Homo sapiens, UniProt P47871); assay: Functional cAMP formation (HTRF) in HEK-293 clonal cells expressing hGCGR, 0.1% bovine casein, without or with 1.0% human serum albumin; conditions: geometric mean, read-out: hGCGR EC50, nM (SEM, n)
T1 construct: expressed in transfected cells
T1 sequence (P47871 26-477): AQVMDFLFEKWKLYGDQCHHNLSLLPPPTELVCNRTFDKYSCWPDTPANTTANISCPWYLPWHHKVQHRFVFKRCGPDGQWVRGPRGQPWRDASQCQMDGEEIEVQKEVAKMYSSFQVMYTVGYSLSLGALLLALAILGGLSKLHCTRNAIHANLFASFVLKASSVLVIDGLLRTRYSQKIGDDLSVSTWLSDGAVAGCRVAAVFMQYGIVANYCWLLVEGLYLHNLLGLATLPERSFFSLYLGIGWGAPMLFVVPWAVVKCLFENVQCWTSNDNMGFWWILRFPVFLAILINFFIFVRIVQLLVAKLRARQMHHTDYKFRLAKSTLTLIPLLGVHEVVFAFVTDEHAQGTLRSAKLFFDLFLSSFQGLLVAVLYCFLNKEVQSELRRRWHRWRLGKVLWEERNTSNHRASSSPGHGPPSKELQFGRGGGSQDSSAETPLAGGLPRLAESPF
In short: (§1)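 Cells were stimulated with peptide for 30 min at 37° C, then lysed in buffer carrying cAMP-d2 and anti-cAMP Eu3+-cryptate for a competitive HTRF read after at least 60 min at room temperature. The 665/620 nm ratio was converted to nM cAMP against a standard curve.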

hGLP-1R = hGLP-1R (Homo sapiens, UniProt P43220); assay: Functional cAMP formation (HTRF) in HEK-293 clonal cells expressing hGLP-1R, 0.1% bovine casein, without or with 1.0% human serum albumin; parameters: expressed in transfected cells; conditions: for Emax: read-out: hGLP-1R Emax, % ± SEM; for EC50: geometric mean, read-out: hGLP-1R EC50, nM (SEM, n)
hGLP-1R, sequence (P43220 24-463): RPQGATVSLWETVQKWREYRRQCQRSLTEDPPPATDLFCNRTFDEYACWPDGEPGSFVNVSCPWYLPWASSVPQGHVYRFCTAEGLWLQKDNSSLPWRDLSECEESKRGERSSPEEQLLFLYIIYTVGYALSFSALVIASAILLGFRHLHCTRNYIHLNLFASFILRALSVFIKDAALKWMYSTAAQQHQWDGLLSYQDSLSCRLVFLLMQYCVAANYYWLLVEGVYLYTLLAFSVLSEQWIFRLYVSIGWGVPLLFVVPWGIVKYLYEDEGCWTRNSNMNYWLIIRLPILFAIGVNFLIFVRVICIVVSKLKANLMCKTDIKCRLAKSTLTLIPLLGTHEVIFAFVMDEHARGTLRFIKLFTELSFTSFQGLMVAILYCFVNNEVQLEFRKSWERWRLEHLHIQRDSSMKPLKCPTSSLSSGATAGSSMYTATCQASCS
In short: as §1

hGIPR = biological target: T2, hGIPR (Homo sapiens, UniProt P48546); assay: Functional cAMP formation (HTRF) in HEK-293 clonal cells expressing hGIPR, 0.1% bovine casein, without or with 1.0% human serum albumin; conditions: for Emax: read-out: hGIPR Emax, % ± SEM; for EC50: geometric mean, read-out: hGIPR EC50, nM (SEM, n)
T2 construct: expressed in transfected cells
T2 sequence (P48546 22-466): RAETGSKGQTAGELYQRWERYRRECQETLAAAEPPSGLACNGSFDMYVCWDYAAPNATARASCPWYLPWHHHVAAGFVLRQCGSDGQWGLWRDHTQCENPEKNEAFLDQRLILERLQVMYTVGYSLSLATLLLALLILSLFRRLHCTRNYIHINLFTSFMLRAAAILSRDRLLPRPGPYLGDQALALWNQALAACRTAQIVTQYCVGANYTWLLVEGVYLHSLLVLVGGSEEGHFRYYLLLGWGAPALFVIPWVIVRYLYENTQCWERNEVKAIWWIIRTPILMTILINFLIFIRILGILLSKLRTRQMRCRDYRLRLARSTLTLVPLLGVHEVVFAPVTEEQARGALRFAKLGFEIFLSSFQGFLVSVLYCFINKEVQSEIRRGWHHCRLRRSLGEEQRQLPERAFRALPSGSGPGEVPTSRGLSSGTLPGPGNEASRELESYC
In short: as §1

[1] = 0.1% bovine casein and 1.0% human serum albumin, 37° C.
[2] = cAMP, incubated at 37° C., 0.1% bovine casein (no human serum albumin)
[3] = HEK293, 0.1% bovine casein and 1.0% human serum albumin, 37° C., percent of maximal response to GLP-1(7-36)NH2
[4] = HEK293, 0.1% bovine casein and 1.0% human serum albumin, 37° C., percent of maximal response to GIP(1-42)NH2
[5] = HEK293, percent of maximal response to GIP(1-42)NH2, 37° C., 0.1% bovine casein, arithmetic mean
[6] = cAMP, 37° C., 0.1% bovine casein (no human serum albumin)

EC50 (hGLP-1R; [1]) [nM]	EC50 (hGLP-1R; [6]) [nM]	EC50 (hGIPR; [1]) [nM]	Emax (hGIPR; HEK293, cAMP, 37° C., 0.1% bovine casein, percent of maximal response to GIP(1-42)NH2, arithmetic mean) [%]	EC50 (hGIPR; [6]) [nM]	SMILES	EC50 (hGCGR; [1]) [nM]	EC50 (hGCGR; [2]) [nM]	Emax (hGLP-1R; [3]) [%]	EC50 (hGLP-1R; [2]) [nM]	Emax (hGIPR; [4]) [%]	Emax (hGIPR; [5]) [%]	EC50 (hGIPR; [2]) [nM]	Emax (hGLP-1R; HEK293, percent of maximal response to GLP-1(7-36)NH2, 37° C., 0.1% bovine casein, arithmetic mean) [%]	EC50 (hGCGR; [6]) [nM]	Emax (hGLP-1R; HEK293, cAMP, 37° C., 0.1% bovine casein, percent of maximal response to GLP-1(7-36)NH2, arithmetic mean) [%]
–	–	–	–	–	CC[C@H](C)[C@H](NC(=O)[C@H](CC(C)C)NC(=O)[C@](C)(Cc1ccc(O)cc1)NC(=O)[C@@H](CCC(=O)O)NC(=O)[C@@H](NC(=O)[C@H](Cc1ccccc1)NC(=O)[C@H](CCC(=O)O)NC(=O)C(C)(C)NC(=O)[C@H](CCC(N)=O)NC(=O)[C@H](C)NC(=O)[C@H](CCCCNC(=O)COCCOCCNC(=O)COCCOCCNC(=O)CC[C@H](NC(=O)CCCCCCCCCCCCC(=O)O)C(=O)O)NC(=O)[C@H](CCCN)NC(=O)[C@H](CC(=O)O)NC(=O)[C@H](CC(C)C)NC(=O)[C@](C)(CC(C)C)NC(=O)[C@@H](NC(=O)[C@H](CO)NC(=O)[C@H](CC1CCCCC1)NC(=O)[C@H](CC(=O)O)NC(=O)[C@H](CO)NC(=O)[C@@H](NC(=O)[C@](C)(Cc1ccccc1F)NC(=O)[C@@H](NC(=O)CNC(=O)[C@H](CCC(=O)O)NC(=O)C(C)(C)NC(=O)[C@@H](N)Cc1ccc(O)cc1)[C@@H](C)O)[C@@H](C)O)[C@@H](C)CC)[C@@H](C)CC)C(=O)N[C@@H](CCC(=O)O)C(=O)NCC(=O)NCC(=O)N[C@@H](CCCCNC(=O)COCCOCCNC(=O)COCCOCCNC(=O)CC[C@H](NC(=O)CCCCCCCCCCCCC(=O)O)C(=O)O)C(=O)N[C@@H](CO)C(=O)N[C@@H](CO)C(=O)NCC(=O)N[C@@H](C)C(=O)N1CCC[C@H]1C(=O)N1CCC[C@H]1C(=O)N1CCC[C@H]1C(=O)N[C@@H](CO)C(N)=O [Example 98]	> 9950	> 9950	97.5	0.227	95	97.7 ± 2.54	0.0148	–	–	–
–	–	–	–	–	CC[C@H](C)[C@H](NC(=O)[C@H](CC(C)C)NC(=O)[C@](C)(Cc1ccc(O)cc1)NC(=O)[C@@H](CCC(=O)O)NC(=O)[C@@H](NC(=O)[C@H](Cc1ccccc1Cl)NC(=O)[C@H](CCC(=O)O)NC(=O)C(C)(C)NC(=O)[C@H](CCC(N)=O)NC(=O)[C@H](C)NC(=O)[C@H](CCCCNC(=O)COCCOCCNC(=O)COCCOCCNC(=O)CC[C@H](NC(=O)CCCCCCCCCCCCC(=O)O)C(=O)O)NC(=O)[C@H](CCCN)NC(=O)[C@H](CC(=O)O)NC(=O)[C@H](CC(C)C)NC(=O)[C@](C)(CC(C)C)NC(=O)[C@@H](NC(=O)[C@H](CO)NC(=O)[C@H](Cc1ccncc1)NC(=O)[C@H](CC(=O)O)NC(=O)[C@H](CO)NC(=O)[C@@H](NC(=O)[C@](C)(Cc1ccccc1F)NC(=O)[C@@H](NC(=O)CNC(=O)[C@H](CCC(=O)O)NC(=O)C(C)(C)NC(=O)[C@@H](N)Cc1ccc(O)cc1)[C@@H](C)O)[C@@H](C)O)[C@@H](C)CC)[C@@H](C)CC)C(=O)N[C@@H](CCC(=O)O)C(=O)NCC(=O)NCC(=O)N[C@@H](CCCCNC(=O)COCCOCCNC(=O)COCCOCCNC(=O)CC[C@H](NC(=O)CCCCCCCCCCCCC(=O)O)C(=O)O)C(=O)N[C@@H](CO)C(=O)N[C@@H](CO)C(=O)NCC(=O)N[C@@H](C)C(=O)N1CCC[C@H]1C(=O)N1CCC[C@H]1C(=O)N1CCC[C@H]1C(=O)N[C@@H](CO)C(N)=O [Example 61]	> 9950	> 9950	89.7	–	92.8	88.2	0.012	82.9	–	–
–	–	–	–	–	CC[C@H](C)[C@H](NC(=O)[C@H](CCCN)NC(=O)[C@H](CC(=O)O)NC(=O)[C@H](CC(C)C)NC(=O)[C@](C)(CC(C)C)NC(=O)[C@@H](NC(=O)[C@H](CO)NC(=O)[C@H](Cc1ccc2ccccc2c1)NC(=O)[C@H](CC(=O)O)NC(=O)[C@H](CO)NC(=O)[C@@H](NC(=O)[C@](C)(Cc1ccccc1F)NC(=O)[C@@H](NC(=O)CNC(=O)[C@H](CCC(=O)O)NC(=O)C(C)(C)NC(=O)[C@@H](N)Cc1ccc(O)cc1)[C@@H](C)O)[C@@H](C)O)[C@@H](C)CC)C(=O)N[C@@H](C)C(=O)N[C@@H](CCC(N)=O)C(=O)NC(C)(C)C(=O)N[C@@H](CCCCNC(=O)COCCOCCNC(=O)COCCOCCNC(=O)CC[C@H](NC(=O)CCCCCCCCCCCCC(=O)O)C(=O)O)C(=O)N[C@@H](Cc1ccccc1)C(=O)N[C@H](C(=O)N[C@H](CCC(=O)O)C(=O)N[C@@](C)(Cc1ccc(O)cc1)C(=O)N[C@@H](CC(C)C)C(=O)N[C@H](C(=O)N[C@@H](CCCCNC(=O)COCCOCCNC(=O)COCCOCCNC(=O)CC[C@H](NC(=O)CCCCCCCCCCCCC(=O)O)C(=O)O)C(=O)NCC(=O)NCC(=O)N1CCC[C@H]1C(=O)N[C@@H](CO)C(=O)N[C@@H](CO)C(=O)NCC(=O)N[C@@H](C)C(=O)N1CCC[C@H]1C(=O)N1CCC[C@H]1C(=O)N1CCC[C@H]1C(=O)N[C@@H](CO)C(N)=O)[C@@H](C)CC)[C@@H](C)CC [Example 253]	> 9950	–	114	–	78.9	–	–	–	> 9950	113
6.26	0.0665	0.833	105	0.00615	CCCCCCCCCCCC(=O)N[C@@H](CCC(=O)NCCOCCOCC(=O)NCCOCCOCC(=O)NCCCC[C@H](NC(=O)[C@H](CCCN)NC(=O)[C@H](CC(=O)O)NC(=O)[C@H](CC(C)C)NC(=O)[C@](C)(CC(C)C)NC(=O)[C@@H](NC(=O)[C@H](CO)NC(=O)[C@H](CCCCNC(=O)COCCOCCNC(=O)COCCOCCNC(=O)CC[C@H](NC(=O)CCCCCCCCCCC)C(=O)O)NC(=O)[C@H](CC(=O)O)NC(=O)[C@H](CO)NC(=O)[C@@H](NC(=O)[C@](C)(Cc1ccccc1F)NC(=O)[C@@H](NC(=O)CNC(=O)[C@H](CCC(=O)O)NC(=O)C(C)(C)NC(=O)[C@@H](N)Cc1ccc(O)cc1)[C@@H](C)O)[C@@H](C)O)[C@@H](C)CC)C(=O)N[C@@H](C)C(=O)N[C@@H](CCC(N)=O)C(=O)NC(C)(C)C(=O)N[C@@H](CCC(=O)O)C(=O)N[C@@H](Cc1ccccc1)C(=O)N[C@H](C(=O)N[C@H](CCC(=O)O)C(=O)N[C@@](C)(Cc1ccc(O)cc1)C(=O)N[C@@H](CC(C)C)C(=O)N[C@H](C(=O)N[C@@H](CCC(=O)O)C(=O)NCC(=O)NCC(N)=O)[C@@H](C)CC)[C@@H](C)CC)C(=O)O [Example 294] (H-Y[Aib]EGT[αMePhe(2-F)]TSDK([AEEA-AEEA-γGlu-Lauroyl])SI[αMeL]LD[Orn]K([AEEA-AEEA-γGlu-Lauroyl])AQ[Aib]EFI[dE][αMeY]LIEGG-NH2)	> 9950	–	–	–	–	–	–	–	> 9950	–
